Results: US9642869B2, “Boronic acid derivatives and therapeutic uses thereof” (Rempex Pharmaceuticals, Inc., priority 2013, dated 2017)

Columns and labels:
[1] = tested on: CMY-6 EC1010; type: cell-based; conditions: minimum BLI concentration inhibiting growth with tigemonam at 4 μg/mL
[2] = tested on: ECL1002; type: cell-based; conditions: minimum BLI concentration inhibiting growth with tigemonam at 4 μg/mL
[3] = tested on: OXA-48 KP1086; assay: Biapenem potentiation (MPC@1); type: cell-based; conditions: minimum BLI concentration inhibiting growth with 1 μg/mL biapenem
Procedure: (§1) Biapenem was present in the test medium at 1 μg/mL. […] Table 3 summarizes the BLI potency of biapenem potentiation (MPC@1) for two strains overexpressing class A (KPC) and class D (OXA-48) carbapenemases. Biapenem MIC for each strain is also shown.

[4] = tested on: KP1004 KPC-2; assay: Biapenem potentiation (MPC@1); type: cell-based; conditions: minimum BLI concentration inhibiting growth with 1 μg/mL biapenem
Procedure: as §1

[5] = tested on: CTX-M-14 KP1005; assay: Aztreonam potentiation (MPC@4); type: cell-based; conditions: minimum BLI concentration inhibiting growth with 4 μg/mL aztreonam
[6] = tested on: CMY-6 EC1010; assay: Aztreonam potentiation (MPC@4); type: cell-based; conditions: minimum BLI concentration inhibiting growth with 4 μg/mL aztreonam
[7] = tested on: SHV-5 ec308; type: cell-based; conditions: minimum BLI concentration inhibiting growth with tigemonam at 4 μg/mL
[8] = target: SHV-12 (Klebsiella pneumoniae, UniProt P0AD64, E235K/G234S/L31Q); assay: Inhibition of nitrocefin cleavage by purified enzyme (Ki); type: biochemical
How it was run: (§2)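 Purified enzyme was preincubated with a range of inhibitor concentrations in reaction buffer for 10 min at room temperature. Nitrocefin was then added and its cleavage followed at 490 nm every 10 sec for 10 min.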

[9] = target: KPC-2 (Klebsiella pneumoniae, UniProt Q9F663); assay: as above; type: biochemical; conditions: nitrocefin reporter substrate, 10 min preincubation; read-out: Ki (KPC-2, NCF)
How it was run: as §2

[10] = target: OXA-48 (Klebsiella pneumoniae, UniProt Q6XEC0); assay: as above; type: biochemical; conditions: nitrocefin reporter substrate, 10 min preincubation; read-out: Ki (OXA-48, NCF)
How it was run: as §2

[11] = target: P99 (Enterobacter cloacae, UniProt P05364); assay: as above; type: biochemical; conditions: nitrocefin reporter substrate, 10 min preincubation; read-out: Ki (P99, NCF)
How it was run: as §2

[12] = target: CTX-M-14 (Escherichia coli, UniProt Q9L5C7); assay: as above; type: biochemical; conditions: nitrocefin reporter substrate, 10 min preincubation; read-out: Ki (CTX-M-14, NCF)
How it was run: as §2

[13] = tested on: CTX-M-15 KP1009; type: cell-based
[14] = tested on: ECL1002; assay: Aztreonam potentiation (MPC@4); type: cell-based; conditions: minimum BLI concentration inhibiting growth with 4 μg/mL aztreonam
[15] = tested on: CTX-M-15 KP1009; assay: Aztreonam potentiation (MPC@4); type: cell-based; conditions: minimum BLI concentration inhibiting growth with 4 μg/mL aztreonam
[16] = tested on: TEM-10 ec302; assay: Aztreonam potentiation (MPC@4); type: cell-based; conditions: minimum BLI concentration inhibiting growth with 4 μg/mL aztreonam
[17] = tested on: CTX-M-14 KP1005; type: cell-based
[18] = tested on: TEM-10 ec302; type: cell-based
[19] = tested on: KPC-2 KP1004; assay: Aztreonam potentiation (MPC@4); type: cell-based; conditions: minimum BLI concentration inhibiting growth with 4 μg/mL aztreonam
[20] = tested on: SHV-5 ec308; assay: Aztreonam potentiation (MPC@4); type: cell-based; conditions: minimum BLI concentration inhibiting growth with 4 μg/mL aztreonam
[21] = Intravenous pharmacokinetics; type: in vivo; conditions: rat, plasma; rats, IV infusion over 0.5 hours, dose 20 mg/kg; read-out: Free Cl (converted)
Procedure: Rats (n=3 per compound) were administered by a single infusion. IV doses were infused over 0.5 hours via an indwelling femoral vein cannula. Plasma (˜0.3 mL) samples were collected from each rat at designated time points up to 24 hours. Blood samples were centrifuged within 5 min of collection at 12000 g for 5 min to obtain plasma. The plasma samples were stored at −80° C. until analyzed. Data were analyzed using WinNonlin.

P99, sequence (P05364 21-381): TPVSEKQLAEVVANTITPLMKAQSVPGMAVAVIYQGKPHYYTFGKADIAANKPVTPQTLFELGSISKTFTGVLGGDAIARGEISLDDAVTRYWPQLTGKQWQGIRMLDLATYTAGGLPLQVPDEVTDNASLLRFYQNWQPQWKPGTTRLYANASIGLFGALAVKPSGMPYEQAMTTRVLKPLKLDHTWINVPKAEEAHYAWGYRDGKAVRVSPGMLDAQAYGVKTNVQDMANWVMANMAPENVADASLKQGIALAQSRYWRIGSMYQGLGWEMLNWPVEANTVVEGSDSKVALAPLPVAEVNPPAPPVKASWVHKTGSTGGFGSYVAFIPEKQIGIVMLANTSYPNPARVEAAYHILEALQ
OXA-48, sequence (Q6XEC0 23-265 limits assumed): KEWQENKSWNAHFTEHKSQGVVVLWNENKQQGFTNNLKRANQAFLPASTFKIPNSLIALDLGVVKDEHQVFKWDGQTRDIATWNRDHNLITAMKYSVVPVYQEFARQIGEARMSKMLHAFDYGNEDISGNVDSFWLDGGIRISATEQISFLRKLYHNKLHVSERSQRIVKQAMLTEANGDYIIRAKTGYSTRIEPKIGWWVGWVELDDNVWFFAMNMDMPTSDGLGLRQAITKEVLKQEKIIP
CTX-M-14, sequence (Q9L5C7 entry or part of it): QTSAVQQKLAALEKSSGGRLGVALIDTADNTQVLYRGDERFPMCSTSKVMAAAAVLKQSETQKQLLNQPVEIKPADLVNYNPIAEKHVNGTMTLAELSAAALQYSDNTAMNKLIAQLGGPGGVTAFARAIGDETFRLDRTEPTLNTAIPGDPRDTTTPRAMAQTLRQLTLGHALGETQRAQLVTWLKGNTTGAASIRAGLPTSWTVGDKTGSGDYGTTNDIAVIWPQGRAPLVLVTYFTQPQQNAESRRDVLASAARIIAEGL
KPC-2, sequence (Q9F663 25-293 limits assumed): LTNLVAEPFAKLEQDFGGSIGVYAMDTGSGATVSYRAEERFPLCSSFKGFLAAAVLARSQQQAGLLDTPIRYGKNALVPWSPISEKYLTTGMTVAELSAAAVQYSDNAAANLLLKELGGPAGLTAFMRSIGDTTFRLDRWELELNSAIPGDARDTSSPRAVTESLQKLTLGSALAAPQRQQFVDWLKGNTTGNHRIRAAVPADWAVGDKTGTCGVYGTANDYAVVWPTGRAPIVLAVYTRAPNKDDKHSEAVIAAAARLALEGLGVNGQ
SHV-12, sequence (P0AD64 22-286 L31Q/G234S/E235K): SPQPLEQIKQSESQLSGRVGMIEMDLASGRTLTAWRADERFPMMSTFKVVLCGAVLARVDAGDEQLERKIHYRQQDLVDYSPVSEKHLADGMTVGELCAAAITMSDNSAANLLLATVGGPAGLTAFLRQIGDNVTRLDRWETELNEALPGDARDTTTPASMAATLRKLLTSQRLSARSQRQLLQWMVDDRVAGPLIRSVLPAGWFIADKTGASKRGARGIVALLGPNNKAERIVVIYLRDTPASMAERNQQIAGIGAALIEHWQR

## Nc1nnc(C(=O)N[C@H]2Cc3cccc(C(=O)O)c3OB2O)o1 [Compound 20, (R)-3-(5-amino-1,3,4-oxadiazole-2-carboxamido)-2-hydroxy-3,4-dihydro-2H-benzo[e][1,2]oxaborinine-8-carboxylic acid]
[1]
  TIG MPC4 CMY-6 EC1010: X (MIC of less than 1 μg/mL)
[2]
  TIG MPC4 ECL1002: X (MIC of less than 1 μg/mL)
[3]
  BPM MPC1 OXA-48 KP1086: Y (MIC of 1 μg/mL to 10 μg/mL)
[4]
  BPM MPC1 KP1004 KPC-2: X (MIC of less than 1 μg/mL)
[5]
  AZT MPC4 CTX-M-14 KP1005: Y (MIC of 1 μg/mL to 10 μg/mL)
[6]
  AZT MPC4 CMY-6 EC1010: X (MIC of less than 1 μg/mL)
[7]
  TIG MPC4 SHV-5 ec308: X (MIC of less than 1 μg/mL)
[8]
  Ki: 0.001 to 0.01 µM
[9]
  Ki: > 0.01 µM
[10]
  Ki: 0.001 to 0.01 µM
[11]
  Ki: 0.001 to 0.01 µM
[12]
  Ki: 0.001 to 0.01 µM
[13]
  TIG MPC4 CTX-M-15 KP1009: X (key: X: MIC of less than 1 μg/mL; Y: MIC of 1 μg/mL to 10 μg/mL; Z: MIC of greater than 10 μg/mL)
[14]
  AZT MPC4 ECL1002: X (MIC of less than 1 μg/mL)
[15]
  AZT MPC4 CTX-M-15 KP1009: X (MIC of less than 1 μg/mL)
[16]
  AZT MPC4 TEM-10 ec302: Y (MIC of 1 μg/mL to 10 μg/mL)
[17]
  TIG MPC4 CTX-M-14 KP1005: Y (key: X: MIC of less than 1 μg/mL; Y: MIC of 1 μg/mL to 10 μg/mL; Z: MIC of greater than 10 μg/mL)
[18]
  TIG MPC4 TEM-10 ec302: Y (key: X: MIC of less than 1 μg/mL; Y: MIC of 1 μg/mL to 10 μg/mL; Z: MIC of greater than 10 μg/mL)
[19]
  AZT MPC4 KPC-2 KP1004: Y (MIC of 1 μg/mL to 10 μg/mL)
[20]
  AZT MPC4 SHV-5 ec308: X (MIC of less than 1 μg/mL)

## O=C(CSC1CNC1)N[C@H]1Cc2cccc(C(=O)O)c2OB1O [Compound 22, (R)-3-(2-(azetidin-3-ylthio)acetamido)-2-hydroxy-3,4-dihydro-2H-benzo[e][1,2]oxaborinine-8-carboxylic acid]
[1]
  TIG MPC4 CMY-6 EC1010: X (MIC of less than 1 μg/mL)
[21]
  clearance: 9.5 mL/min/kg
[2]
  TIG MPC4 ECL1002: X (MIC of less than 1 μg/mL)
[3]
  BPM MPC1 OXA-48 KP1086: Y (MIC of 1 μg/mL to 10 μg/mL)
[4]
  BPM MPC1 KP1004 KPC-2: X (MIC of less than 1 μg/mL)
[5]
  AZT MPC4 CTX-M-14 KP1005: X (MIC of less than 1 μg/mL)
[6]
  AZT MPC4 CMY-6 EC1010: X (MIC of less than 1 μg/mL)
[7]
  TIG MPC4 SHV-5 ec308: Y (MIC of 1 μg/mL to 10 μg/mL)
[8]
  Ki: < 0.001 µM
[9]
  Ki: > 0.01 µM
[10]
  Ki: 0.001 to 0.01 µM
[11]
  Ki: 0.001 to 0.01 µM
[12]
  Ki: 0.001 to 0.01 µM
[13]
  TIG MPC4 CTX-M-15 KP1009: X (key: X: MIC of less than 1 μg/mL; Y: MIC of 1 μg/mL to 10 μg/mL; Z: MIC of greater than 10 μg/mL)
[14]
  AZT MPC4 ECL1002: X (MIC of less than 1 μg/mL)
[15]
  AZT MPC4 CTX-M-15 KP1009: X (MIC of less than 1 μg/mL)
[16]
  AZT MPC4 TEM-10 ec302: Y (MIC of 1 μg/mL to 10 μg/mL)
[17]
  TIG MPC4 CTX-M-14 KP1005: Y (key: X: MIC of less than 1 μg/mL; Y: MIC of 1 μg/mL to 10 μg/mL; Z: MIC of greater than 10 μg/mL)
[19]
  AZT MPC4 KPC-2 KP1004: X (MIC of less than 1 μg/mL)
[20]
  AZT MPC4 SHV-5 ec308: X (MIC of less than 1 μg/mL)
